Experiments:
[1] = Solubility of tacrolimus in Transcutol P; assay type: physicochemical; conditions: room temperature
Excerpt: Since tacrolimus is lipid-soluble and a formulation for delivering a drug is in a hydrophilic gel form, a solubilizer that can dissolve tacrolimus and then disperse tacrolimus well was needed. Also, in order to enhance the skin permeability of tacrolimus, Transcutol P was selected as a substance which can act as an enhancer for skin permeability. […] Carbopol 934P used as a polymeric base absorbs and attracts water well, has an ability to form a film, and thus is widely used as a moisturizer. Carnosine, which is a biocomponent present in human muscle and brain tissue, is known as a substance having excellent antioxidant activity, and appropriately adjusts the pH of a formulation for external application when applied to skin.

[2] = poorly soluble in water and highly permeable; cited from earlier work

In the case of `C=CC[C@@H]1/C=C(\C)C[C@H](C)C[C@H](OC)[C@H]2O[C@@](O)(C(=O)C(=O)N3CCCC[C@H]3C(=O)O[C@H](/C(C)=C/[C@@H]3CC[C@@H](O)[C@H](OC)C3)[C@H](C)[C@@H](O)CC1=O)[C@H](C)C[C@@H]2OC` [tacrolimus, Tacrolimus], the “solubility of tacrolimus in Transcutol P” value [1] is given as 240 mg/g and the BCS class [2] is given as “class II”.

Reference: patent US9937121B2, “Hydrophilic external gel formulation capable of enhancing skin permeability of tacrolimus” (CHUNG-ANG UNIVERSITY INDUSTRY-ACADEMIC COOPERATION …, priority 2014, dated 2018)
